Reference: publication PMC7906020, “Trp-Containing Antibacterial Peptides Impair Quorum Sensing and Biofilm Development in Multidrug-Resistant Pseudomonas aeruginosa and Exhibit Synergistic Effects With Antibiotics” (Frontiers in Microbiology, 2021)
“And” between values parts separate entries of the source, which are not always exact repeats. Equal values may be shown once. Read-outs that look alike come from different tables or passages of the source.

Assays:
[1] = tested on: rhamnolipid production in MRPA0108; assay: Rhamnolipid production, orcinol method; assay type: cell-based, Pseudomonas aeruginosa; conditions: peptide at 1/4 × MIC, 24 h, absorbance 420 nm, vs control, triplicate
Method: (§1) The culture supernatant was obtained after centrifugation at 12,000×g for 10 min. (1) LasB elastase activity was measured using elastin-Congo red (ECR) as the substrate, as described by [Pattnaik et al. (2018)]. Briefly, 100 μl of the culture supernatant was added to 900 μl of ECR buffer (100 mM Tris-HCl, 1 mM CaCl2, pH 7.5) containing 10 mg of ECR and then incubated with shaking at 37°C for 18 h. Then, 100 μl of 0.12 M EDTA was added to stop the reaction. The insoluble ECR was removed by centrifugation, and the supernatant absorbance was measured at 495 nm. The optical density (OD) 495 nm/OD 600 nm represents the elastase activity. (2) LasA protease activity was measured as follows ([Pattnaik et al., 2018]): first, the culture supernatant was filtered to remove the bacterial cells, and then 150 μl of sterile-filtered supernatant was added to 2% azocasein (prepared in 50 mM Tris-HCl) and incubated for 4 h at 37°C. Trichloroacetic acid (TCA, 10%) was added to precipitate the undigested substrate. After centrifugation at 10,000 rpm for 10 min, 1 M NaOH was added to the supernatant, and the relative protease activity was measured at OD 440 nm. (3) The pyocyanin assay was based on the absorbance of excreted pyocyanin at 520 nm in an acidic solution ([Kong et al., 2005]). Three milliliters of culture supernatant were mixed with 2 ml of chloroform for 20 min, and then the pyocyanin from the chloroform phase was reextracted using 0.2 M HCl for 15 min to obtain a pink-colored pyocyanin solution. The OD 520 nm was measured to evaluate the change in pyocyanin content. (4) Rhamnolipid detection was carried out as previously described ([Wittgens et al., 2011]). Briefly, 500 μl of culture supernatant was mixed with 500 μl of ethyl acetate and vortexed vigorously for 15 s to extract rhamnolipid. After centrifugation at 10,000×g for 5 min at 4°C, the organic phase containing rhamnolipids was obtained and evaporated at room temperature overnight. The rhamnolipid extract dissolved in ultrapure water was mixed with orcinol reagent (0.19% orcinol in 53% H2SO4) and incubated at 80°C for 30 min. The absorbance was measured at 420 nm. (5) The level of C4-HSL was quantified by GC-MS as previously described ([Guo et al., 2012]).

MRPA0108 = assay: Checkerboard assay (FICI) of peptides with antibiotics; assay type: cell-based, Pseudomonas aeruginosa; conditions: MRPA0108, 24 h 37°C, median of at least three experiments, synergy ≤ 0.5, additive 0.5-1, indifference 1-2
Method: The synergistic effect of peptides and antibiotics was evaluated using the checkerboard method, in which the fractional inhibitory concentration index (FICI) was used to analyze the type of interaction between compounds ([Berditsch et al., 2015]). A 100 μl inoculum of 10^5 CFU/ml planktonic bacteria was added to the respective wells of 96-well microtiter plates, and then serial dilutions of peptide and antibiotic at 100 μl volumes were added to each well and incubated at 37°C for 24 h. The OD 600 nm value was measured with a microplate plate reader (Varioskan Flash Microplate Reader, Thermo Fisher Scientific Co., Beijing) as an indicator of growth inhibition. The resulting checkerboard contained each combination of peptide and antibiotic in 9 doubly increasing concentrations, with wells containing the highest concentration of each antibiotic at opposite corners. The concentrations tested for every combination of peptide-antibiotic were their respective MICs. MH medium and the peptide/antibiotic combination served as negative and positive controls, respectively. The FICI is calculated as FICa plus FICb, where FICa is the MIC of the peptide in the presence of antibiotics/the MIC of the peptide alone, and FICb is the MIC of the antibiotic in the presence of peptide/the MIC of the antibiotic alone. Drug interactions were defined as follows: synergy, FICI ≤ 0.5; additive effect, 0.5 < FICI ≤ 1; and indifference, 1 < FICI ≤ 2 ([Hollander et al., 1998]; [Yoon et al., 2004]). The results were recorded in at least three independent experiments, and the median FICI values were used in the analysis.

MRPA0108 strain = conditions: previous study, ref Han et al., 2020; cited from earlier work
Excerpt: Supplement Table_1.docx, table 1: Table S1 Biological characteristics and antibacterial activities of the Trp-containing antimicrobial peptides (32) | column: MIC(μM)

[2] = cited from earlier work
Excerpt: Supplement Table_1.docx, table 1: Table S1 Biological characteristics and antibacterial activities of the Trp-containing antimicrobial peptides (32) | column: Hemolysis (μM)

[3] = tested on: LasB elastase of MRPA0108; assay: LasB elastase activity, elastin-Congo red method; assay type: cell-based, Pseudomonas aeruginosa; conditions: peptide at 1/4 × MIC, 24 h, 37°C; ECR substrate, OD495/OD600; vs control; triplicate
Method: as §1, with “The rhamnolipid extract dissolved in ultrapure water was mixed with orcinol reagent (0.19% orcinol in 53% H2SO4) and incubated at 80°C for 30 min.” left out

[4] = tested on: pyocyanin production in MRPA0108; assay: Pyocyanin production assay; assay type: cell-based, Pseudomonas aeruginosa; conditions: peptide at 1/4 × MIC, 24 h; OD 520 nm; vs untreated control; triplicate
Method: The culture supernatant was obtained after centrifugation at 12,000×g for 10 min. (1) LasB elastase activity was measured using elastin-Congo red (ECR) as the substrate, as described by [Pattnaik et al. (2018)]. Briefly, 100 μl of the culture supernatant was added to 900 μl of ECR buffer (100 mM Tris-HCl, 1 mM CaCl2, pH 7.5) containing 10 mg of ECR and then incubated with shaking at 37°C for 18 h. Then, 100 μl of 0.12 M EDTA was added to stop the reaction. The insoluble ECR was removed by centrifugation, and the supernatant absorbance was measured at 495 nm. The optical density (OD) 495 nm/OD 600 nm represents the elastase activity. (2) LasA protease activity was measured as follows ([Pattnaik et al., 2018]): first, the culture supernatant was filtered to remove the bacterial cells, and then 150 μl of sterile-filtered supernatant was added to 2% azocasein (prepared in 50 mM Tris-HCl) and incubated for 4 h at 37°C. […] After centrifugation at 10,000 rpm for 10 min, 1 M NaOH was added to the supernatant, and the relative protease activity was measured at OD 440 nm. (3) The pyocyanin assay was based on the absorbance of excreted pyocyanin at 520 nm in an acidic solution ([Kong et al., 2005]). […] The OD 520 nm was measured to evaluate the change in pyocyanin content. […] The absorbance was measured at 420 nm. (5) The level of C4-HSL was quantified by GC-MS as previously described ([Guo et al., 2012]).

MRPA0108 biofilms = assay: Confocal laser scanning microscopy of biofilms (LIVE/DEAD staining); assay type: cell-based, Pseudomonas aeruginosa; conditions: 24 h; for percentage of dead/live cells in biofilm: SYTO9/PI, control 8.7%
Method: Biofilms of MRPA0108 were visualized by confocal microscopy. Mid-log growth-phase bacteria were diluted to 1 × 10^7 CFU/ml. […] LB liquid medium and erythromycin were used as negative and positive controls, respectively. After incubation, the supernatant was removed, and the slides were washed and stained in a dark environment for 30 min using a LIVE/DEAD BacLight^TM Bacterial Viability Kit (Invitrogen, Life Technologies, Shanghai, China). The slides were washed three times and imaged with a confocal laser scanning microscope (LSM 710, Carl Zeiss, Germany) with excitation/emission wavelengths of 480/500 and 490/635 nm for SYTO9 and propidium iodide (PI), respectively. SYTO9 was used to indicate live bacteria, and PI was used to mark dead bacteria.

Substance | inhibition of rhamnolipid production [1] | FICI in combination with ceftazidime (MRPA0108) | FICI in combination with piperacillin (MRPA0108) | MIC (MRPA0108 strain) | Hemolysis ([2]; as previously reported, ref Bi et al., 2013) | decrease of LasB elastase activity [3] | reduction of pyocyanin production [4] | average biofilm thickness (MRPA0108 biofilms; after treatment with low concentrations of peptide (1 × MIC or 2 × MIC), 37°C, control biofilm 6 μm) | percentage of dead/live cells in biofilm (MRPA0108 biofilms; peptide at 1 × MIC) | percentage of dead/live cells in biofilm (MRPA0108 biofilms; peptide at 2 × MIC) | FICI in combination with levofloxacin (MRPA0108) | Hemolysis [2]
IKKILSKIKKWLK-NH2 [L11W] | 24.3% | 0.25 | 0.28–0.49 and 0.34 | 25 µM | > 500 µM | – | – | – | – | – | – | –
IKKIWSKIKKLLK-NH2 [L5W] | 40.7% | 0.23 | 0.37 | 12.5 µM | – | 24.1% | 69.4% | 1.5–2.5 μm | 21.4% | 32.5% | 0.62 | > 500 µM
IKKWWSKIKKLLK-NH2 [I4WL5W] | 37.5% | 0.43 | 0.68 | 12.5 µM | – | – | – | – | – | – | 1.12 | > 500 µM
WKKIWSKIKKLLK-NH2 [I1WL5W] | 38.8% | 0.37 | 0.59 | 12.5 µM | – | – | – | – | – | – | 0.75 | > 500 µM
